From paper PMC10064330, “Reversible Dual-Covalent Molecular Locking of the 14-3-3/ERRγ Protein–Protein Interaction as a Molecular Glue Drug Discovery Approach” (Journal of the American Chemical Society, 2023)

Target: T1, 14-3-3γ/ERRγ complex (Homo sapiens, UniProt P61981+P62508)
T1 construct: made in house; host or cells: E. coli NiCo21 (DE3)
Assay: Time-dependent intact MS in competitive mixture of nine client phosphopeptides
Type: biochemical
Source text: 14-3-3 proteins interact with many phosphorylated proteins, with differing affinities and cellular concentrations.[44],[49],[50] On the cellular level, there is a large reservoir of 14-3-3, typically in vast excess to its binding partners. Notwithstanding, we were interested in developing a testable model for the effect of the molecular locking on a PPI network. To investigate the intricacies of selective stabilization of the 14-3-3/ERRγ interaction in a complex matrix, we performed time-dependent intact MS experiments in a competitive environment of excess of 14-3-3 client phosphopeptides. A mixture of 14-3-3 (1 eq.), molecular lock 5 (10 eq.), ΕRRγ (2 eq.), and eight additional client phosphopeptides (8 × 2 eq.) was incubated, and incremental samples were taken, quenched with sodium cyanoborohydride, and measured (Figure 5). […] The peptide panel contained four higher-affinity and three lower-affinity 14-3-3 binding clients, relative to ERRγ, (Figure 5b) and contained +1 Cys-containing peptides RND3 and PKR.
Figure S23a. QTOF-MS analysis of 14-3-3/peptide mix/5. […] Calculated mass 14-3-3γ apo:
31542.8 Da. Calculated mass covalently crosslinked 14-3-3γ/ERRγ/5 complex: 33019.5 Da. […]
Different Scanning Fluorimetry (DSF) assays were performed using 40 µL samples containing 5 µM 14-3-3γ, 50 µM ERRγ pS179 9-mer peptide, 200 µM compound (or 1% DMSO) and 5x ProteoOrange (Lumiprobe, 5000x stock in DMSO) in 10 mM Hepes, 150 mM NaCl, 50 µM TCEP (pH 8.0). […] Fluorescence intensity was determined using excitation 470/40 nm and emission 570/20 nm filters. Based on these melting curves, the negative derivative melting curve is obtained from which the melting temperature Tm was determined. ΔTm values represent the differences in melting temperature relative to the DMSO control. All described melting temperatures are based on three independent experiments from which the average and standard deviations were determined using excel. […]

T1 sequence (P61981 whole entry, other chains not shown): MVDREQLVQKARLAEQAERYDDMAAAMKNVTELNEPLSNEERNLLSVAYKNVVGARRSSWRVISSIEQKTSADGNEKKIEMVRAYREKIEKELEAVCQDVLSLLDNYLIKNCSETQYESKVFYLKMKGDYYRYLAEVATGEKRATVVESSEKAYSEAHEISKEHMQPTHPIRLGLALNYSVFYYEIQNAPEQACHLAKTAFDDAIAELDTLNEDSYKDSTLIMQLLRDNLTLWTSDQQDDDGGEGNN

CN(C)CCSSCCN(C)C(=O)c1ccc(C=O)c(F)c1 [compound 5]
maximum crosslinking efficiency (14-3-3γ/ERRγ/5 complex formation) (14-3-3γ 5 μM, ERRγ 10 μM, 5 50 μM, eight additional phosphopeptides 10 μM each): 35%
increase in total number of 14-3-3/ERRγ complexes in solution (intact MS 35% vs modeled 2.4% ERRγ bound): 15 fold
reduction in crosslinking capacity, peptide mix vs ERRγ in isolation (peptide competitors relative to ERRγ 8:1): ~2 fold
